Where “and” joins values, the source holds several entries; their conditions need not be identical. Identical values can stand only once. Like-named read-outs stand apart in the source and are kept apart here.
Legend:
Aβ = target: T1, Aβ (Homo sapiens, UniProt P05067); assay: Self-induced Aβ aggregation inhibition by thioflavin T assay; assay type: biochemical; settings: read-out: Aβ Aggregation Inhibition (%)
T1 construct: Aggregation of β-amyloid peptide (Aβ) is one of the main histopathological hallmarks of AD; purchased Beyotime P9001
Method: Aggregation of β-amyloid peptide (Aβ) is one of the main histopathological hallmarks of AD [34].
A total of 1mg Aβ (P9001, Beyotime, Shanghai, China) was dissolved in 1 mL of hexafluoroisopropanol and aliquoted into 50 μL per tube. Then, 20 μL of DMSO was added into one tube of Aβ solution. The test compound was prepared as a 10 mM of stock solution with DMSO and diluted to 50 μM with PBS (including the control). Then, 20 μL of the test compound and 20 μL of the Aβ solution were added to a 96-well black plate, which was gently tapped to mix the solution, covered tightly and sealed with black tape to prevent evaporation of the solvent, and left in the dark at room temperature for 24 h. Then. 160 μL of THT solution at a concentration of 5 μM was added and the fluorescence absorption was measured at an excitation wavelength of 445 nm and an emission wavelength of 490 nm. The software GraphPad Prism 8.0 was used to analyze the data.

SH-SY5Y cells = assay: Cytotoxicity assay on SH-SY5Y cells (MTT); assay type: cell-based; settings: 10, 25 and 50 μM, 24 h
Method: To evaluate the cytotoxicity of these new compounds, cell viability was tested on SH-SY5Y cells.
SH-SY5Y cells were grown in a 25 cm^2 culture flask in fresh MEM/F12 medium, supplemented with 10% fetal bovine serum, 100 U/mL penicillin, and 100 µg/mL streptomycin, and incubated at 37 °C with 5% CO2. Cells were seeded at a density of 1 × 10^4 cells per well in a 96-well plate. After incubation for 24 h, medium was removed. […] After 24 h treatment, 10 μL of 3-(4,5-dimethyl-2-thiazolyl)-2,5-diphenyl-2-H-tetrazolium bromide was added into each well. After 4 h of incubation at 37 °C, 100 μL of DMSO was added to dissolve the formazan crystals, and the mixture’s absorbance was measured at 490 nm under a microplate reader (FC/K3, Thermo, Waltham, MA, USA). The survival rate was estimated using the formula Ae/Ab × 100%, where Ae and Ab represent the absorbance of SH-SY5Y cells in the presence and absence of the tested drugs, respectively. Each experiment was replicated three times.

[1] = target: T2, AChE enzyme from electrophorus electricus (eeAChE) (Electrophorus electricus, UniProt O42275); assay: biochemical; settings: mean ± SEM from three independent experiments
T2 construct: purchased Merck C3389
Method: Donepezil was used as a positive control.
AChE activity was measured by the […] using AChE enzyme from electrophorus electricus (eeAChE) (C3389, Merck, Kenilworth, NJ, USA). AChE solution (2 U/mL) was prepared with 0.1 M phosphate buffer (pH 8.0) firstly. Varied concentrations of test compounds (20 μL), 1 mM 5′-dithiobis (2-nitrobenzoic acid) (DTNB) solution (100 μL), and AChE solution (40 μL) were added in order to each well of a 96-well plate. After incubation for 15 min at 37 °C, the reaction was initiated by adding 20 μL of acetylthiocholine iodide (1 mM) to the mixed solution. The absorbance of each plate was instantly measured at 405 nm using a microplate reader. The inhibition of each compound was estimated using the formula (1−Ai/Ac) × 100, where Ai and Ac represent the absorbance of AChE in the presence and absence of inhibitors, respectively. Each experiment was replicated three times. Plotting curves of log concentration via percentage of inhibition, the IC50 values of all tested compounds were graphically analyzed (Graph Pad Prism 8.0).

[2] = DPPH free radical scavenging assay; settings: 50 μM, mean ± SEM
Method: DPPH assay was used to evaluate the free radical scavenging ability of the representative compound 10a, while Trolox was used as a control.
Compound 10a was tested for free radical-scavenging activity using 1,1-diphenyl-2-picryl-hydrazyl (DPPH) (D9132, Merck, Kenilworth, NJ, USA). To make a 0.1 mM concentration of DPPH stock solution, DPPH was dissolved in methanol. […] Trolox was used as a reference. The absorbance was measured at 545 nm after 30 min of reaction at 25 °C.

AChE = target: T3, AChE (Electrophorus electricus, UniProt O42275); assay: Kinetic study of AChE inhibition (Lineweaver-Burk); assay type: biochemical; settings: 10a at 0, 0.8 and 1.6 nM
T3 construct: purchased Merck C3389
Method: The mechanistic inhibition study of compound 10a on the AChE was carried out through kinetic parameters such as maximal velocity (Vmax), inhibitory concentration (Ki) and Michalis–Menten dissociation constant (Km).
Kinetic study of AChE inhibition was carried out using Ellman’s method, which is the same as the AChE assay, to determine the kinetic mechanism of chemical inhibition. The kinetic inhibition of compound 10a was analyzed at concentrations of 0.8 and 1.6nM. Lineweaver–Burk reciprocal plots were created by graphing 1/velocity vs. 1/[substrate] at various concentrations of substrate acetylthiocholine. The software GraphPad Prism 8.0 was used to analyze the data.

T2 sequence (O42275 24-633): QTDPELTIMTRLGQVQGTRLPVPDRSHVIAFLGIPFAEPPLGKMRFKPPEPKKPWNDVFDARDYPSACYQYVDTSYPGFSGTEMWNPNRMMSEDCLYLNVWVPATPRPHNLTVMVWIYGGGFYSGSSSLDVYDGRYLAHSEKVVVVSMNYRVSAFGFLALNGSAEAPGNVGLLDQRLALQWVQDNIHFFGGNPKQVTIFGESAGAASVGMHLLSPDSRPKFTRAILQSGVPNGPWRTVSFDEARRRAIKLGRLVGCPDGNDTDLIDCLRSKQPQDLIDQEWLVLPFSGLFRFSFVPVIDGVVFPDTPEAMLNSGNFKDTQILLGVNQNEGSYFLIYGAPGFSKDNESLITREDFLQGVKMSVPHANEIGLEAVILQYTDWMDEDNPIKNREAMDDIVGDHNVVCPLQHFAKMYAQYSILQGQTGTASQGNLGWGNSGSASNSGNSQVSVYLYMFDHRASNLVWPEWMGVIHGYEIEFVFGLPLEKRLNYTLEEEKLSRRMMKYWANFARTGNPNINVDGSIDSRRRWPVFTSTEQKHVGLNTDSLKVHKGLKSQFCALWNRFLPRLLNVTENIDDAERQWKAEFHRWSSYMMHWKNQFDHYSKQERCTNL
T1 sequence (P05067 672-713): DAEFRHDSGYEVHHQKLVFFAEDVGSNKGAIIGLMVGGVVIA
T3 sequence (O42275 24-633): as the sequence (O42275 24-633) above

SMILES	IC50 [1] [nM]	also measured
Oc1ccc(/C=C/c2cc(O)cc(O)c2)cc1 [Resveratrol, reference compound]		inhibition at 25 µM (Aβ; 25 μM, self-induced, thioflavin T, mean ± SEM): 83.3 ± 5.23%
COc1cc2c(cc1OC)C(=O)/C(=C/c1cc[n+](Cc3ccccc3F)cc1C(N)=O)OC2.[Br-] [13b, (Z)-3-Carbamoyl-4-((6,7-dimethoxy-4-oxoisochroman-3-ylidene)methyl)-1-(2-fluorobenzyl)pyridin-1-ium Bromide]	3.54 ± 0.05	Cell viability on SH-SY5Y cells (SH-SY5Y cells): did not significantly alter cell viability
COc1cc2c(cc1OC)C(=O)/C(=C/c1cc[n+](Cc3ccccc3)cc1C(C)=O)OC2.[Br-] [10a, (Z)-3-Acetyl-1-benzyl-4-((6,7-dimethoxy-4-oxoisochroman-3-ylidene)methyl)pyridin-1-ium bromide]	1.61 ± 0.02	Reduced DPPH (%) [2]: 31.89% and 31.89 ± 3.23%; Type of AChE inhibition (Lineweaver-Burk plot) (AChE): mixed-type inhibitor; inhibition at 25 µM (Aβ): 57 ± 2.68%; Cell viability on SH-SY5Y cells (SH-SY5Y cells): did not significantly alter cell viability
COc1cc2c(cc1OC)C(=O)/C(=C/c1cc[n+](Cc3cccc(Cl)c3)cc1C(N)=O)OC2 [13f, (Z)-3-Carbamoyl-1-(3-chlorobenzyl)-4-((6,7-dimethoxy-4-oxoisochroman-3-ylidene)methyl)pyridin-1-ium Bromide]	26.7 ± 0.28	
COc1cc2c(cc1OC)C(=O)/C(=C/c1cc[n+](Cc3cccc(C)c3)cc1C(C)=O)OC2 [10l, (Z)-3-Acetyl-4-((6,7-dimethoxy-4-oxoisochroman-3-ylidene)methyl)-1-(3-methylbenzyl)pyridin-1-ium Bromide]	6.61 ± 0.81	
COc1cc2c(cc1OC)C(=O)/C(=C/c1cc[n+](Cc3ccc(C)cc3)cc1C(N)=O)OC2 [13m, (Z)-3-Carbamoyl-4-((6,7-dimethoxy-4-oxoisochroman-3-ylidene)methyl)-1-(4-methylbenzyl)pyridin-1-ium Bromide]	42.47 ± 0.25	
COc1cc2c(cc1OC)C(=O)/C(=C/c1cc[n+](Cc3ccc(F)cc3)cc1C(N)=O)OC2 [13d, (Z)-3-Carbamoyl-4-((6,7-dimethoxy-4-oxoisochroman-3-ylidene)methyl)-1-(4-fluorobenzyl)pyridin-1-ium Bromide]	8.25 ± 0.13	
COc1cc2c(cc1OC)C(=O)/C(=C/c1cc[n+](Cc3cccc(F)c3)cc1C(N)=O)OC2 [13c, (Z)-3-Carbamoyl-4-((6,7-dimethoxy-4-oxoisochroman-3-ylidene)methyl)-1-(3-fluorobenzyl)pyridin-1-ium Bromide]	6.02 ± 0.08	
COc1cc2c(cc1OC)C(=O)/C(=C/c1cc[n+](Cc3ccc(Br)cc3)cc1C(N)=O)OC2 [13j, (Z)-1-(4-Bromobenzyl)-3-carbamoyl-4-((6,7-dimethoxy-4-oxoisochroman-3-ylidene)methyl)pyridin-1-ium Bromide]	422 ± 5.92	
COc1cc2c(cc1OC)C(=O)/C(=C/c1cc[n+](Cc3ccccc3C(F)(F)F)cc1C(N)=O)OC2 [13n, (Z)-3-Carbamoyl-4-((6,7-dimethoxy-4-oxoisochroman-3-ylidene)methyl)-1-(2-(trifluoromethyl)benzyl)pyridin-1-ium Bromide]	30.7 ± 0.71	
COc1cc2c(cc1OC)C(=O)/C(=C/c1cc[n+](Cc3ccc(C(F)(F)F)cc3)cc1C(N)=O)OC2 [13p, (Z)-3-Carbamoyl-4-((6,7-dimethoxy-4-oxoisochroman-3-ylidene)methyl)-1-(4-(trifluoromethyl)benzyl)pyridin-1-ium Bromide]	441 ± 7.82	
COc1cc2c(cc1OC)C(=O)/C(=C/c1cc[n+](Cc3ccc([N+](=O)[O-])cc3)cc1C(C)=O)OC2 [10p, (Z)-3-Acetyl-4-((6,7-dimethoxy-4-oxoisochroman-3-ylidene)methyl)-1-(4-nitrobenzyl)pyridin-1-ium Bromide]	129 ± 2.68	
COc1cc2c(cc1OC)C(=O)/C(=C/c1cc[n+](Cc3ccc(F)cc3)cc1C(C)=O)OC2 [10d, (Z)-3-Acetyl-4-((6,7-dimethoxy-4-oxoisochroman-3-ylidene)methyl)-1-(4-fluorobenzyl)pyridin-1-ium Bromide]	7.69 ± 0.35	
COc1cc2c(cc1OC)C(=O)/C(=C/c1cc[n+](Cc3cccc(C)c3)cc1C(N)=O)OC2 [13l, (Z)-3-Carbamoyl-4-((6,7-dimethoxy-4-oxoisochroman-3-ylidene)methyl)-1-(3-methylbenzyl)pyridin-1-ium Bromide]	16.26 ± 0.12	
COc1cc2c(cc1OC)C(=O)/C(=C/c1cc[n+](Cc3ccc(C)cc3)cc1C(C)=O)OC2 [10m, (Z)-3-Acetyl-4-((6,7-dimethoxy-4-oxoisochroman-3-ylidene)methyl)-1-(4-methylbenzyl)pyridin-1-ium Bromide]	54.1 ± 3.22	
COc1cc2c(cc1OC)C(=O)/C(=C/c1cc[n+](Cc3ccc(Cl)cc3)cc1C(C)=O)OC2 [10g, (Z)-3-Acetyl-1-(4-chlorobenzyl)-4-((6,7-dimethoxy-4-oxoisochroman-3-ylidene)methyl)pyridin-1-ium Bromide]	67.3 ± 2.68	
COc1cc2c(cc1OC)C(=O)/C(=C/c1cc[n+](Cc3ccccc3C)cc1C(C)=O)OC2 [10k, (Z)-3-Acetyl-4-((6,7-dimethoxy-4-oxoisochroman-3-ylidene)methyl)-1-(2-methylbenzyl)pyridin-1-ium Bromide]	4.8 ± 0.26	
COc1cc2c(cc1OC)C(=O)/C(=C/c1cc[n+](Cc3ccccc3Cl)cc1C(C)=O)OC2 [10e, (Z)-3-Acetyl-1-(2-chlorobenzyl)-4-((6,7-dimethoxy-4-oxoisochroman-3-ylidene)methyl)pyridin-1-ium Bromide]	5.86 ± 0.86	
COc1cc2c(cc1OC)C(=O)/C(=C/c1cc[n+](Cc3ccccc3Br)cc1C(N)=O)OC2 [13h, (Z)-1-(2-Bromobenzyl)-3-carbamoyl-4-((6,7-dimethoxy-4-oxoisochroman-3-ylidene)methyl)pyridin-1-ium Bromide]	21.7 ± 0.32	
COc1cc2c(cc1OC)C(=O)/C(=C/c1cc[n+](Cc3cccc([N+](=O)[O-])c3)cc1C(C)=O)OC2 [10o, (Z)-3-Acetyl-4-((6,7-dimethoxy-4-oxoisochroman-3-ylidene)methyl)-1-(3-nitrobenzyl)pyridin-1-ium Bromide]	22.4 ± 1.25	
COc1cc2c(cc1OC)C(=O)/C(=C/c1cc[n+](Cc3ccccc3C(F)(F)F)cc1C(C)=O)OC2 [10q, (Z)-3-Acetyl-4-((6,7-dimethoxy-4-oxoisochroman-3-ylidene)methyl)-1-(2-(trifluoromethyl)benzyl)pyridin-1-ium Bromide]	18.9 ± 1.16	
Cc1c(C)c2c(c(C)c1O)CCC(C)(C(=O)O)O2 (stereo not shown) [Trolox, reference compound]		Reduced DPPH (%) [2]: 72.41 ± 4.23%
COc1cc2c(cc1OC)C(=O)/C(=C/c1cc[n+](Cc3cccc(Br)c3)cc1C(N)=O)OC2 [13i, (Z)-1-(3-Bromobenzyl)-3-carbamoyl-4-((6,7-dimethoxy-4-oxoisochroman-3-ylidene)methyl)pyridin-1-ium Bromide]	38.1 ± 0.92	

Reference: article PMC9145193 (Molecules, 2022)
